Measurements reported in PubChem BioAssay AID1996.
Values after ≈ are worked out from the molar mass of the structure shown.

details: buffer; pH 7.4; 200.0 µM

Question: With CCc1nonc1NC(=O)c1oc2ccc(Cl)cc2c1C as the compound, how does the solubility kinetic read?
Answer: < 0.2 µg/mL

Question: Which solubility kinetic does the source give for O=[N+]([O-])c1ccc(O)c(C=Nc2ccc3c(c2)OCO3)c1 here?
Answer: 15.8 µg/mL (≈ 55.2 µM)

Question: With Nc1nc(SCC(=O)O)[nH]c(=O)c1NC(=O)c1ccco1 as the compound, how does the solubility kinetic read?
Answer: > 46.5 µg/mL

Question: Which solubility kinetic does the source give for CC1(C)CC(=O)C=C(Nc2cccc(Cl)c2Cl)C1 here?
Answer: 37.3 µg/mL (≈ 131 µM)

Question: Which solubility kinetic does the source give for CN[C@H](CC(=O)O)C(=O)O here?
Answer: > 22.1 µg/mL

Question: With CC(C)[C@H](NC(=O)c1ccccc1)C(=O)O as the compound, how does the solubility kinetic read?
Answer: > 33.2 µg/mL

Question: With O=C(COC(=O)CC1CC2CCC1C2)Nc1ccccc1[N+](=O)[O-] (stereo not given) as the compound, how does the solubility kinetic read?
Answer: 2.9 µg/mL (≈ 8.73 µM)

Question: With CCc1cccc2c1NC(=O)C2(O)N1CCCC(C)C1 (stereo not given) as the compound, how does the solubility kinetic read?
Answer: 38.5 µg/mL (≈ 140 µM)

Question: With Cc1ccc(S(=O)(=O)Nc2nc3ccc(N)cc3s2)cc1 as the compound, how does the solubility kinetic read?
Answer: 45.8 µg/mL (≈ 143 µM)

Question: Which solubility kinetic does the source give for CC(C)(C)CN1CCN(CC#Cc2ccccc2)CC1CCO (stereo not given) here?
Answer: > 47.2 µg/mL

Question: For COc1ccc(C(CNC(=O)c2ccc3c(c2)CCC3)N(C)C)cc1 (stereo not given), which solubility kinetic is on record?
Answer: > 50.8 µg/mL

Question: Which solubility kinetic does the source give for CCN(C(=O)CSc1nc2ccccc2[nH]1)C1CCS(=O)(=O)C1 (stereo not given) here?
Answer: > 53 µg/mL

Question: With O=C(O)CCC(=O)N1CCN(Cc2ccc3c(c2)OCO3)CC1 as the compound, how does the solubility kinetic read?
Answer: 28.1 µg/mL (≈ 87.7 µM)

Question: With O=C(NCc1cccnc1)Nc1cccc(C(F)(F)F)c1 as the compound, how does the solubility kinetic read?
Answer: > 44.3 µg/mL

Question: With CC(NC(=O)CN1C(=O)NC2(CCCC2)C1=O)c1ccc(Cl)cc1Cl (stereo not given) as the compound, how does the solubility kinetic read?
Answer: 51.8 µg/mL (≈ 135 µM)

Question: With CC1=NN(c2nc(-c3ccc(C#N)cc3)cs2)C(=O)C1 as the compound, how does the solubility kinetic read?
Answer: > 42.3 µg/mL

Question: With O=C(CNC(=O)c1ccccc1F)N/N=C/c1cccnc1 as the compound, how does the solubility kinetic read?
Answer: > 45 µg/mL

Question: With Nc1c(C(=O)c2ccccc2)oc2ccc([N+](=O)[O-])cc12 as the compound, how does the solubility kinetic read?
Answer: 1.3 µg/mL (≈ 4.61 µM)

Question: For O=C1CC(c2ccccc2)CC2=C1C=Nc1ccccc1N2 (stereo not given), which solubility kinetic is on record?
Answer: 37 µg/mL (≈ 128 µM)

Question: With O=C(CSc1ncccn1)NC1CCCc2ccccc21 (stereo not given) as the compound, how does the solubility kinetic read?
Answer: 42.5 µg/mL (≈ 142 µM)

Question: For O=C(CSc1ccccn1)Nc1ccc(Cl)c([N+](=O)[O-])c1, which solubility kinetic is on record?
Answer: 1.7 µg/mL (≈ 5.25 µM)

Question: With Cc1cc(C(=O)NCC2COc3ccccc3O2)c2ccccc2n1 (stereo not given) as the compound, how does the solubility kinetic read?
Answer: 9.3 µg/mL (≈ 27.8 µM)

Question: For O=C(Cc1ccccc1)N/N=C/c1cccnc1, which solubility kinetic is on record?
Answer: > 35.9 µg/mL

Question: Which solubility kinetic does the source give for CC1CCCCC12NC(=O)N(CC(=O)OCC(=O)Nc1ccc(F)cc1[N+](=O)[O-])C2=O (stereo not given) here?
Answer: 7.5 µg/mL (≈ 17.2 µM)

Question: For COc1ccc(CN2CCOCCOCCOCCOCCOCC2)cc1, which solubility kinetic is on record?
Answer: > 57.5 µg/mL

Question: With Cc1scc(C(=O)N2CCN(c3ccc(Cl)cc3)CC2)c1C as the compound, how does the solubility kinetic read?
Answer: 23.3 µg/mL (≈ 69.6 µM)

Question: With COc1ccc(/C=C(\C)c2nc(C)c(-c3ccccc3)c(=O)[nH]2)cc1 as the compound, how does the solubility kinetic read?
Answer: 1.4 µg/mL (≈ 4.21 µM)

Question: With O=C(COC(=O)c1cccs1)Nc1cccc(Cl)c1 as the compound, how does the solubility kinetic read?
Answer: 7.6 µg/mL (≈ 25.7 µM)

Question: With O=C(NCc1ccc(Cl)c(Cl)c1)C1CCCC1 as the compound, how does the solubility kinetic read?
Answer: 32.6 µg/mL (≈ 120 µM)

Question: With Clc1cccc(OCCCn2ccnc2)c1 as the compound, how does the solubility kinetic read?
Answer: > 35.5 µg/mL

Question: Which solubility kinetic does the source give for O=[N+]([O-])c1ccc(CN2CCN(c3ccccc3Cl)CC2)o1 here?
Answer: 31.8 µg/mL (≈ 98.8 µM)

Question: With COc1cccc(C(=O)OCC(=O)Nc2cc(C)on2)c1OC as the compound, how does the solubility kinetic read?
Answer: > 48 µg/mL

Question: For COc1ccc2[nH]c3c(=O)n(CCCN4CCOCC4)cnc3c2c1, which solubility kinetic is on record?
Answer: > 51.4 µg/mL

Question: For COc1ccc(CCNC(=O)C2CC=CCC2C(=O)O)cc1 (stereo not given), which solubility kinetic is on record?
Answer: > 45.5 µg/mL

Question: With CN(C)c1nc(F)c(F)c(S(=O)(=O)c2ccccc2)c1F as the compound, how does the solubility kinetic read?
Answer: 12.4 µg/mL (≈ 39.2 µM)

Question: Which solubility kinetic does the source give for O=C(CCl)N(c1ccccc1)C1CCCCC1 here?
Answer: 36.6 µg/mL (≈ 145 µM)

Question: For CC1CC(C)CN(C(=O)COC(=O)CN2C(=O)c3ccccc3C2=O)C1 (stereo not given), which solubility kinetic is on record?
Answer: > 53.8 µg/mL

Question: With CC12CC3CC(C1)CC(C(=O)NNC(=O)c1ccncc1)(C3)C2 as the compound, how does the solubility kinetic read?
Answer: > 47 µg/mL

Question: Which solubility kinetic does the source give for O=C(COc1ccc(Cl)cc1)OCC(=O)N1CCOCC1 here?
Answer: > 47.1 µg/mL

Question: For COc1cccc(Nc2cc(C)c3ccccc3n2)c1, which solubility kinetic is on record?
Answer: 8.7 µg/mL (≈ 32.9 µM)

Question: For CCOc1ccc2cc(S(=O)(=O)N3CCCCC3)ccc2c1, which solubility kinetic is on record?
Answer: < 0.7 µg/mL

Question: With COC(=O)c1ccc(C2NC(=O)c3ccccc3O2)cc1 (stereo not given) as the compound, how does the solubility kinetic read?
Answer: 5.2 µg/mL (≈ 18.4 µM)

Question: With CC(C)[C@H](NS(=O)(=O)c1ccccc1)C(=O)Nc1nccs1 as the compound, how does the solubility kinetic read?
Answer: 7.2 µg/mL (≈ 21.2 µM)

Question: With O=c1[nH]c(/C=C/c2cccc(Br)c2)nc2ccccc12 as the compound, how does the solubility kinetic read?
Answer: < 0.4 µg/mL

Question: With COc1ccc(C2=NOC(COc3ccc([N+](=O)[O-])cc3)C2)cc1 (stereo not given) as the compound, how does the solubility kinetic read?
Answer: < 0.4 µg/mL

Question: Which solubility kinetic does the source give for COc1ccc(C(=O)NC(=S)Nc2cccnc2)cc1Cl here?
Answer: 1.5 µg/mL (≈ 4.66 µM)

Question: For Cc1cc(C)c(S(=O)(=O)c2ccc(F)cc2C)c(=O)[nH]1, which solubility kinetic is on record?
Answer: > 44.3 µg/mL

Question: For NC(=O)CSc1nc(-c2ccccc2)nc2c1CCCC2, which solubility kinetic is on record?
Answer: 0.5 µg/mL (≈ 1.67 µM)

Question: With CN1CCOCCOc2ccccc2OCCOCC1 as the compound, how does the solubility kinetic read?
Answer: > 42.2 µg/mL

Question: Which solubility kinetic does the source give for O=C(CNC(=O)c1ccccc1F)NCCc1ccc(Cl)cc1 here?
Answer: 47.5 µg/mL (≈ 142 µM)

Question: For CCOC(=O)Nc1ccc(N2CCOCC2)c(S(=O)(=O)Nc2ccc(Cl)cc2)c1, which solubility kinetic is on record?
Answer: 7.8 µg/mL (≈ 17.7 µM)

Question: For CCOC(=O)CCn1cc(F)c(=O)[nH]c1=O, which solubility kinetic is on record?
Answer: > 34.5 µg/mL

Question: With CCOc1ncccc1C(=O)OCc1c(F)cccc1Cl as the compound, how does the solubility kinetic read?
Answer: 4.6 µg/mL (≈ 14.9 µM)

Question: Which solubility kinetic does the source give for CC(C)(ONC(=O)Nc1ccccc1Cl)C(=O)O here?
Answer: > 40.9 µg/mL

Question: For COc1cc(/C=C2\SC(N)=NC2=O)cc(Br)c1O, which solubility kinetic is on record?
Answer: 1.7 µg/mL (≈ 5.16 µM)

Question: With CCOc1ccccc1NC(=O)CCCNC(=O)c1ccc(Cl)cc1 as the compound, how does the solubility kinetic read?
Answer: 50.4 µg/mL (≈ 140 µM)

Question: With COc1ccc(CCNC(=O)c2cc(=O)c3cc(C)ccc3o2)cc1 as the compound, how does the solubility kinetic read?
Answer: 6.6 µg/mL (≈ 19.6 µM)

Question: For CCn1cc(CCCC(=O)NCc2ccc(OC)cc2)c2ccccc21, which solubility kinetic is on record?
Answer: 10.5 µg/mL (≈ 30 µM)

Question: Which solubility kinetic does the source give for CCOc1ccc2[nH]cc(C(=O)NCc3ccccc3)c(=O)c2c1 here?
Answer: 0.9 µg/mL (≈ 2.79 µM)

Question: Which solubility kinetic does the source give for CCOC(=O)/C=C1\SCC(=O)N1CC(=O)Nc1cccc(F)c1 here?
Answer: 17.1 µg/mL (≈ 50.5 µM)

Question: Which solubility kinetic does the source give for Cc1cccc(N2CC(O)(c3cccs3)[N+]3=C2CCCCC3)c1.[Br-] (stereo not given) here?
Answer: > 61.1 µg/mL

Question: For CCCc1cc(C(=O)Nc2cc(C)ccc2O)no1, which solubility kinetic is on record?
Answer: 1.2 µg/mL (≈ 4.61 µM)

Question: With N#Cc1ccc(OCC(=O)Nc2ccc3[nH]c(=O)[nH]c3c2)cc1 as the compound, how does the solubility kinetic read?
Answer: 7.3 µg/mL (≈ 23.7 µM)

Question: For CN(Cc1ccco1)S(=O)(=O)c1csc(C(N)=O)c1, which solubility kinetic is on record?
Answer: 44.7 µg/mL (≈ 149 µM)

Question: Which solubility kinetic does the source give for CC(C)(C)NC(=O)CN1C(=O)/C(=C/c2ccccc2)SC1=S here?
Answer: 1.1 µg/mL (≈ 3.29 µM)

Question: For Cc1nc(SCC(=O)Nc2ccc3[nH]c(=O)[nH]c3c2)nc(C)c1C, which solubility kinetic is on record?
Answer: 15 µg/mL (≈ 43.7 µM)

Question: For O=C(CSCc1ccc(Cl)cc1)NCCSCc1ccco1, which solubility kinetic is on record?
Answer: 36.3 µg/mL (≈ 102 µM)

Question: For O=C(Nc1ccccc1)c1ccco1, which solubility kinetic is on record?
Answer: > 28.1 µg/mL

Question: For Cc1cc(C(=O)OCC(=O)Nc2c(Cl)cccc2Cl)c(C)o1, which solubility kinetic is on record?
Answer: 8.7 µg/mL (≈ 25.4 µM)

Question: For Cc1ccc(C(C)NC(=O)c2c(-c3ccccc3)noc2C)cc1C (stereo not given), which solubility kinetic is on record?
Answer: 2.4 µg/mL (≈ 7.18 µM)

Question: With CCOc1ccc(CCNC(=O)Nc2ccccc2C)cc1OCC as the compound, how does the solubility kinetic read?
Answer: 3.2 µg/mL (≈ 9.34 µM)

Question: With Cc1ccccc1C(=O)NC(=S)N(Cc1ccccc1)c1ccccn1 as the compound, how does the solubility kinetic read?
Answer: > 54.2 µg/mL

Question: With Cc1ccc(C(=O)NCC(=O)Nc2ccc(Cl)cc2)s1 as the compound, how does the solubility kinetic read?
Answer: 4.6 µg/mL (≈ 14.9 µM)

Question: For O=C(/C=C/c1ccc(S(=O)(=O)N2CCOCC2)cc1)Nc1ccc(F)c(F)c1F, which solubility kinetic is on record?
Answer: 6.9 µg/mL (≈ 16.2 µM)

Question: For COc1ccc(CC(=O)N2CCN(c3cccc(Cl)c3)CC2)cc1OC, which solubility kinetic is on record?
Answer: 48.7 µg/mL (≈ 130 µM)

Question: Which solubility kinetic does the source give for CSc1ccc(C(=O)C2CCCN(C)C2)cc1 (stereo not given) here?
Answer: > 37.4 µg/mL

Question: For CCOc1cc(N2CCOCC2)c(OCC)cc1NC(=O)C(C)Oc1ccccc1 (stereo not given), which solubility kinetic is on record?
Answer: 43.6 µg/mL (≈ 105 µM)

Question: With CC(C)=CCN1CCN(Cc2cccc3nccnc23)CC1CCO (stereo not given) as the compound, how does the solubility kinetic read?
Answer: > 51.1 µg/mL

Question: For COc1cccc(COC(=O)C2CCN(C(=O)c3ccccc3C)CC2)c1OC, which solubility kinetic is on record?
Answer: > 59.6 µg/mL

Question: For Cc1nc2cc(NS(=O)(=O)c3ccccc3F)ccc2s1, which solubility kinetic is on record?
Answer: 35.6 µg/mL (≈ 110 µM)

Question: For COc1ccc(S(=O)(=O)N2CCOCC2)cc1NS(=O)(=O)c1ccc(F)c(F)c1, which solubility kinetic is on record?
Answer: > 67.3 µg/mL

Question: With NC(=O)c1cc(S(=O)(=O)Nc2ccccc2)cs1 as the compound, how does the solubility kinetic read?
Answer: > 42.3 µg/mL

Question: Which solubility kinetic does the source give for O=C(COC(=O)CCC(=O)c1ccc(F)cc1)Nc1ccc(Cl)cn1 here?
Answer: 21.1 µg/mL (≈ 57.8 µM)

Question: For O=C(Nc1ccc2ccccc2c1)c1ccccc1O, which solubility kinetic is on record?
Answer: 0.7 µg/mL (≈ 2.66 µM)

Question: For Cc1cc(C)nc(N2CCCC(C(=O)NC3CC3)C2)n1 (stereo not given), which solubility kinetic is on record?
Answer: > 41.2 µg/mL
